According to PubChem BioAssay AID330 (DTP/NCI, 2004):
Values joined by “and” are separate entries in the source; they are usually repeats but may differ in a detail not shown here. Equal values may be shown once. Inconclusive results and toxic doses are left out. Rule for the calls: active = survival T/C of 150% or more; inactive = T/C below 125% in these data.

System: P388 leukemia ip, CD2F1 mice, survival T/C
Experiment: NCI In Vivo Anticancer Drug Screen. Data for tumor model P388 Leukemia (intraperitoneal) in CD2F1 (CDF1) mice
Details: endpoint: median survival time, higher = longer survival
Procedure, shortened: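 Mice carrying the transplanted tumor received test compound or vehicle. Survival was recorded in each group, and the value is the treated-group measurement divided by that of the vehicle-treated control group.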

[1] = dose: 50.0 mg/kg/injection, schedule: Q01DX005 (ip), vehicle: saline
[2] = dose: 100.0 mg/kg/injection, schedule: Q01DX005 (ip), vehicle: saline
[3] = dose: 200.0 mg/kg/injection, schedule: Q01DX005 (ip), vehicle: saline
[4] = dose: 25.0 mg/kg/injection, schedule: Q01DX009 (ip), vehicle: saline with Tween-80
[5] = dose: 50.0 mg/kg/injection, schedule: Q01DX009 (ip), vehicle: saline with Tween-80
[6] = dose: 100.0 mg/kg/injection, schedule: Q01DX009 (ip), vehicle: saline with Tween-80
[7] = dose: 200.0 mg/kg/injection, schedule: Q01DX009 (ip), vehicle: saline with Tween-80
[8] = dose: 50.0 mg/kg/injection, schedule: Q01DX009 (ip), vehicle: saline
[9] = dose: 100.0 mg/kg/injection, schedule: Q01DX009 (ip), vehicle: saline
[10] = dose: 200.0 mg/kg/injection, schedule: Q01DX009 (ip), vehicle: saline
[11] = dose: 50.0 mg/kg/injection, schedule: Q01DX005 (ip), vehicle: saline with Tween-80
[12] = dose: 100.0 mg/kg/injection, schedule: Q01DX005 (ip), vehicle: saline with Tween-80
[13] = dose: 12.5 mg/kg/injection, schedule: Q01DX005 (ip), vehicle: Klucel (hydroxypropylcellulose) (HPC)
[14] = dose: 25.0 mg/kg/injection, schedule: Q01DX005 (ip), vehicle: Klucel (hydroxypropylcellulose) (HPC)
[15] = dose: 50.0 mg/kg/injection, schedule: Q01DX005 (ip), vehicle: Klucel (hydroxypropylcellulose) (HPC)
[16] = dose: 12.5 mg/kg/injection, schedule: Q01DX009 (ip), vehicle: saline with Tween-80
[17] = dose: 1.56 mg/kg/injection, schedule: Q01DX009 (ip), vehicle: saline with Tween-80
[18] = dose: 100.0 mg/kg/injection, schedule: Q01DX001 (ip), vehicle: Klucel (hydroxypropylcellulose) (HPC)
[19] = dose: 200.0 mg/kg/injection, schedule: Q01DX001 (ip), vehicle: Klucel (hydroxypropylcellulose) (HPC)
[20] = dose: 400.0 mg/kg/injection, schedule: Q01DX001 (ip), vehicle: Klucel (hydroxypropylcellulose) (HPC)

Measured: T/C

NC(=O)c1nc2c(Nc3cccc(Cl)c3)nc(N)nc2nc1N
inactive: dose: 100.0 mg/kg/injection, schedule: Q01DX001 (ip), vehicle: saline 100 % of control | dose: 200.0 mg/kg/injection, schedule: Q01DX001 (ip), vehicle: saline 104 % of control | dose: 400.0 mg/kg/injection, schedule: Q01DX001 (ip), vehicle: saline 104 % of control

Cc1ccc(NC(=S)SCc2ccc(Cl)cc2)cc1C
inactive: dose: 50.0 mg/kg/injection, schedule: Q01DX009 (ip), vehicle: suspension in saline 101 % of control | dose: 100.0 mg/kg/injection, schedule: Q01DX009 (ip), vehicle: suspension in saline 107 % of control | dose: 200.0 mg/kg/injection, schedule: Q01DX009 (ip), vehicle: suspension in saline 97 % of control

CCOC(=O)C(C(C)=O)C(=O)c1ccccc1 (stereo not given)
inactive: dose: 50.0 mg/kg/injection, schedule: Q01DX009 (ip), vehicle: saline + alcohol 95 % of control | dose: 100.0 mg/kg/injection, schedule: Q01DX009 (ip), vehicle: saline + alcohol 101 % of control | dose: 200.0 mg/kg/injection, schedule: Q01DX009 (ip), vehicle: saline + alcohol 96 % of control

CC1=COC(C)(C2NC(C)(C)CC(C)O2)CC1 (stereo not given)
inactive: [1] 107 % of control | [2] 103 % of control | [3] 102 % of control

CCOc1nc(N)c(C(=O)c2sc(OCC)nc2N)s1
inactive: dose: 100.0 mg/kg/injection, schedule: Q01DX001 (ip), vehicle: saline with Tween-80 107 % of control | dose: 200.0 mg/kg/injection, schedule: Q01DX001 (ip), vehicle: saline with Tween-80 99 % of control | dose: 400.0 mg/kg/injection, schedule: Q01DX001 (ip), vehicle: saline with Tween-80 92 % of control

Cc1ccc(C(=O)Cc2ccc(C#N)cc2)cc1
inactive: [4] 99 % of control | [5] 118 % of control | [6] 108 % of control | [7] 99 % of control

CN1CNC(=S)NC1
inactive: [8] 105 % of control | [9] 102 % of control | [10] 101 % of control

CCCOc1cc2c(cc1C/C=C/c1ccccc1)OCO2
inactive: [11] 94 % of control | [12] 100 % of control | dose: 200.0 mg/kg/injection, schedule: Q01DX005 (ip), vehicle: saline with Tween-80 102 % of control

Cc1ccc[n+](Cc2ccccc2Cl)c1
inactive: [13] 113 % of control | [14] 113 % of control | [15] 101 % of control

COC(=O)C(CS[C@@H]1CCCC[C@@H]1O)NC(C)=O (stereo not given in full)
inactive: dose: 50.0 mg/kg/injection, schedule: Q01DX005 (ip), vehicle: suspension in saline 100 % of control | dose: 100.0 mg/kg/injection, schedule: Q01DX005 (ip), vehicle: suspension in saline 99 % of control | dose: 200.0 mg/kg/injection, schedule: Q01DX005 (ip), vehicle: suspension in saline 95 % of control

CCCCCCCCC(=O)N(C)OC
inactive: [4] 110 % of control | [5] 110 % of control | [6] 105 % of control

OC(CC1(O)C(F)(F)C(F)(F)C1(F)F)c1ccccc1 (stereo not given)
inactive: dose: 100.0 mg/kg/injection, schedule: Q04DX003 (ip), vehicle: saline with Tween-80 100 % of control | dose: 200.0 mg/kg/injection, schedule: Q04DX003 (ip), vehicle: saline with Tween-80 90 % of control

CC1(O)C(c2ccccc2)=C(c2ccccc2)C2(c3ccccc3)Oc3c(Cl)c(Cl)c(Cl)c(Cl)c3OC12c1ccccc1 (stereo not given)
inactive: [16] 94 % of control | [4] 94 % of control | [5] 90 % of control and 93 % of control

C/C=C1\CNC2Cc3c([nH]c4ccccc34)C(c3c(OC)ccc4c5c([nH]c34)C3(C(=O)OC)CC4CC(CC)C3N(CC5)C4)CC1C2C(=O)OC (stereo not given)
inactive: [17] 93 % of control | dose: 3.12 mg/kg/injection, schedule: Q01DX009 (ip), vehicle: saline with Tween-80 90 % of control | [16] 93 % of control | [4] 90 % of control

Cc1cc2nnn(-c3ncccc3[N+](=O)[O-])c2cc1C
inactive: dose: 60.0 mg/kg/injection, schedule: Q01DX005 (ip), vehicle: saline with Tween-80 104 % of control | dose: 120.0 mg/kg/injection, schedule: Q01DX005 (ip), vehicle: saline with Tween-80 101 % of control | dose: 240.0 mg/kg/injection, schedule: Q01DX005 (ip), vehicle: saline with Tween-80 101 % of control

CCCCCCCCCCCC(=O)NCCCCCC(=O)NC1C(C)OC(Nc2ncnc3nc[nH]c23)C(O)C1O (stereo not given)
inactive: dose: 0.5 mg/kg/injection, schedule: Q01DX009 (ip), vehicle: water 99 % of control | dose: 1.0 mg/kg/injection, schedule: Q01DX009 (ip), vehicle: water 99 % of control | dose: 2.0 mg/kg/injection, schedule: Q01DX009 (ip), vehicle: water 115 % of control | dose: 4.0 mg/kg/injection, schedule: Q01DX009 (ip), vehicle: water 115 % of control | dose: 8.0 mg/kg/injection, schedule: Q01DX009 (ip), vehicle: distilled water + Tween-80 87 % of control | dose: 8.0 mg/kg/injection, schedule: Q01DX009 (ip), vehicle: water 117 % of control | dose: 16.0 mg/kg/injection, schedule: Q01DX009 (ip), vehicle: distilled water + Tween-80 89 % of control | dose: 32.0 mg/kg/injection, schedule: Q01DX009 (ip), vehicle: distilled water + Tween-80 114 % of control | dose: 64.0 mg/kg/injection, schedule: Q01DX009 (ip), vehicle: distilled water + Tween-80 123 % of control

CCC(C)(F)C(N)C(=O)O (stereo not given)
inactive: [1] 100 % of control | [2] 97 % of control | [3] 100 % of control

CC([NH-])C[NH-].CC([NH-])C[NH-].CC([NH-])C[NH-].[Co] (stereo not given)
inactive: dose: 12.5 mg/kg/injection, schedule: Q04DX003 (ip), vehicle: water 91 % of control | dose: 25.0 mg/kg/injection, schedule: Q04DX003 (ip), vehicle: water 94 % of control | dose: 50.0 mg/kg/injection, schedule: Q04DX003 (ip), vehicle: water 94 % of control | dose: 100.0 mg/kg/injection, schedule: Q04DX003 (ip), vehicle: water 90 % of control

O=C(CBr)Nc1c(Br)cc(F)cc1Br
inactive: [5] 100 % of control | [6] 92 % of control | [7] 100 % of control

CCN(Cc1cccc(S(=O)(=O)[O-])c1)c1ccc(C(=C2C=CC(=[N+](CC)Cc3cccc(S(=O)(=O)O)c3)C=C2)c2ccccc2S(=O)(=O)O)cc1
inactive: [1] 104 % of control | [2] 96 % of control | [3] 96 % of control

CCCCN(CCCC)CCC(C)(O)c1cccc2ccccc12 (stereo not given)
inactive: dose: 25.0 mg/kg/injection, schedule: Q01DX005 (ip), vehicle: saline with Tween-80 98 % of control | [11] 108 % of control | [12] 92 % of control

Cc1ccc(C(=O)Cc2ccccc2C#N)cc1
inactive: [13] 102 % of control and 103 % of control | [14] 88 % of control and 97 % of control | [15] 97 % of control | dose: 100.0 mg/kg/injection, schedule: Q01DX005 (ip), vehicle: Klucel (hydroxypropylcellulose) (HPC) 105 % of control

O=C1c2ccccc2C(=O)N1c1ccccc1
inactive: [18] 99 % of control | [19] 100 % of control | [20] 100 % of control

O=c1[nH]c2ccccc2nc1CBr
inactive: [17] 109 % of control | dose: 3.13 mg/kg/injection, schedule: Q01DX009 (ip), vehicle: saline with Tween-80 109 % of control | dose: 6.25 mg/kg/injection, schedule: Q01DX009 (ip), vehicle: saline with Tween-80 113 % of control | dose: 8.33 mg/kg/injection, schedule: Q01DX009 (ip), vehicle: saline with Tween-80 118 % of control | [16] 113 % of control and 122 % of control | dose: 18.7 mg/kg/injection, schedule: Q01DX009 (ip), vehicle: saline with Tween-80 118 % of control

CC(C)=CCC[C@](C)(O[C@@H]1O[C@H](CO)[C@@H](O)[C@H](O)[C@H]1O)[C@H]1CC[C@]2(C)[C@@H]1[C@H](O)C[C@@H]1[C@@]3(C)CC[C@H](O)C(C)(C)[C@@H]3[C@@H](O[C@@H]3O[C@H](CO)[C@@H](O)[C@H](O)[C@H]3O)C[C@]12C
inactive: [8] 105 % of control | [9] 106 % of control | [10] 106 % of control

CC(C)=CCc1cc2c(cc1O)OC[C@H]1c3cc4c(cc3O[C@@H]21)OCO4
inactive: [18] 91 % of control | [19] 96 % of control | [20] 91 % of control
